Literature values, collected in patent US20240325349A1, “LIQUID PHARMACEUTICAL FORMULATIONS OF TOPIRAMATE” (TaP Pharmaceuticals AG, priority 2023, published 2024).
Read-outs that look alike come from different tables or passages of the source.

CC1(C)O[C@@H]2[C@@H](CO[C@@]3(COS(N)(=O)=O)OC(C)(C)O[C@@H]23)O1 [Topiramate, 2,3:4,5-Di-O-isopropylidene-β-D-fructopyranose sulfamate]
Topiramate Solubility (in Aconon C-30 (oil)): 50.7 ± 3.5 mg/mL
Topiramate Solubility (in Capmul MCM C-8 (oil)): 62.5 ± 3.9 mg/mL
Topiramate Solubility (in Capmul MCM EP (oil)): 61.4 ± 3.8 mg/mL
Topiramate Solubility (in Captex 355 (oil)): 14.5 ± 0.8 mg/mL
Topiramate Solubility (in Carbitol (cosurfactant)): 355.6 ± 29.2 mg/mL
Topiramate Solubility (in Cremophor EL (surfactant)): 78 ± 2.1 mg/mL
Topiramate Solubility (in Cremophor RH-40 (surfactant)): 46 ± 2.7 mg/mL
Topiramate Solubility (in Ethyl Oleate (oil)): 6.7 ± 0.3 mg/mL
Topiramate Solubility (in IPM (oil)): 6.7 ± 0.4 mg/mL
Topiramate Solubility (in Oleic Acid (oil)): 0.1 ± 0.1 mg/mL
Topiramate Solubility (in PEG 200 (cosurfactant)): 169.6 ± 2.3 mg/mL
Topiramate Solubility (in PEG 400 (cosurfactant)): 148.9 ± 3.5 mg/mL
Topiramate Solubility (in Sesfol 218 (oil)): 53.6 ± 2.6 mg/mL
Topiramate Solubility (in Tween 20 (surfactant)): 142.8 ± 6.4 mg/mL
Topiramate Solubility (in Tween 80 (surfactant)): 84.2 ± 3^ mg/mL
